Measured values: patent US20250295626A1, “CARBON MONOXIDE-RELEASING MOLECULE (CORM) OR COMPOSITION THEREOF FOR USE IN THE TREATMENT OR THE PREVENTION OF AN INTESTINAL DYSBIOSIS IN A SUBJECT” (priority 2022, published 2025)

Experiments:
Type in all cases: in vivo, C57BL6 mice
[1] = Levels of blood carbon monoxide hemoglobin (COHb) after oral administration
Procedure: The levels of COHb (carbon monoxide bound to hemoglobin) were measured at different time points after oral administration of CORM-401 in two groups of eight-week-old male C57BL6 mice that were fed either a standard diet (SD) or a high fat diet (HFD) for 14 weeks (n=9-10 per group). CORM-401 was freshly prepared in phosphate buffer solution (PBS) and administered orally at a dose of 30 mg/kg=90 μmoles/kg (n=6) and COHb in blood was measured after 1, 6, 24 and 48 hours. • b) Results

[2] = CO accumulation in intestinal tissues after oral administration (hemoCD1 quantification); details: oral 30 mg/kg
Procedure: Eight-week-old male C57BL6 mice weighing approximately 25 g were treated with an oral administration of either CORM-401 (30 mg/kg) or PBS (control group) and then sacrificed after 1, 3, 6, 24 and 48 hours (n=6 per time point). Organs were collected to determine the levels of CO accumulation in different intestinal tissues following the two treatments. The body compartments where the intestinal microbiota is most likely to be present such as the caecum, caecum content, colon and faeces were analyzed. CO accumulation was quantified using the CO sensitive scavenger hemoCD1 as previously reported by the inventors such as in Mao et al, 2021 [10]; Minegishi et al, 2017 [11]. Briefly, fifty milligrams of tissue were homogenized in 0.5 ml PBS in the presence of hemoCD1 (2-10 μM) and sodium dithionite (1 mg). Tissue homogenates were first sonicated, then samples were centrifuged, and the supernatants filtered before measurements by UV-VIS absorption spectroscopy. The concentration of CO was calculated from the absorbances at 422 and 434 nm using a reported equation (Kitagishi et al, 2010; Braud et al 2018 [13]). • b) Results

[3] = test system: intestinal microbiota of HFD mice; experiment: Abundance of bacterial species of intestinal microbiota in faeces (shotgun metagenomic/metatranscriptomic sequencing)
Procedure: Eight-week-old male C57BL6 mice weighing approximately 25 g were fed either a standard diet (SD), high fat diet (HFD) or HFD+CORM-401 for 14 weeks (n=9-10 per group). CORM-401 was prepared freshly in phosphate buffer solution (PBS) and administered orally to mice three times a week each time at a dose of (30 mg/kg=90 μmoles/kg) during the entire HFD regime. Faeces from the three groups of mice were then collected after the 14 week HFD regime for microbiota analysis before mice were sacrificed.
The stool samples DNA and RNA (n=3 per group) were extracted and the sequencing was carried out by a shotgun metagenomic/metatranscriptomic technique as previously described. Briefly, a pre-extraction step combining mechanical, enzymatic and chemical procedures was performed prior to extraction by means of a QIAsymphony PowerFecal Pro DNA Kit (QIAGEN). The extracts were used for DNA/RNA library preparation and determination of pair-end sequences using a NextSeq500 Instrument (Illumina). Fastq files were analysed by an in-house software MetaMIC (v2.2.0). The data were filtered based on quality (phred score) and the sequences were mapped against several custom databases, counted and collected in a separate Fastq file. Sequence counts were made for each bacterial species and compared to the environmental control. The number of sequences for each species was used to determine their relative abundance in each group of mice. • b) Results

[4] = HFD + CORM, faeces after 14 weeks, 30 mg/kg orally three times a week, average of 3
[5] = HFD mice treated 14 weeks, 30 mg/kg orally three times a week

CN(CC(=O)O)C(=S)[S-].[C-]#[O+].[C-]#[O+].[C-]#[O+].[C-]#[O+].[Mn] [CORM-401]
COHb levels in blood ([1]; 1 hour after oral administration of 30 mg/kg, both SD-fed and HFD-fed mice): significantly increased
Period over which blood COHb gradually decreased to baseline levels ([1]; oral 30 mg/kg, SD-fed and HFD-fed mice): 48 h
Time at which the maximum CO content was reached ([2]; all compartments (caecum, caecum content, colon, faeces)): 6 h
Time after which CO content returned to basal levels ([2]; all compartments): 48 h
CO accumulation (time-dependent) ([2]; caecum tissue, caecum content, colon and faeces, vs PBS control): significantly accumulated
Abundance of Adlercreutzia equolifaciens [3, 4]: 4445 number of sequences
Abundance of Aerococcus viridans [3, 4]: 1650 number of sequences
Abundance of Akkermansia muciniphila [3, 4]: 120300 number of sequences
Abundance of Alistipes finegoldii [3, 4]: 6727 number of sequences
Abundance of Alistipes shahii [3, 4]: 9490 number of sequences
Abundance of Bacteroides caecimuris [3, 4]: 14812 number of sequences
Abundance of Bacteroides cellulosilyticus [3, 4]: 246 number of sequences
Abundance of Bacteroides dorei [3, 4]: 3093 number of sequences
Abundance of Bacteroides fragilis [3, 4]: 3651 number of sequences
Abundance of Bacteroides xylanisolvens [3, 4]: 1151 number of sequences
Abundance of Barnesiella viscericola [3, 4]: 350 number of sequences
Abundance of Blautia sp. YL58 [3, 4]: 934 number of sequences
Abundance of Burkholderiales bacterium YL45 [3, 4]: 159 number of sequences
Abundance of Carnobacterium divergens [3, 4]: 1726 number of sequences
Abundance of Clostridioides difficile [3, 4]: 1101 number of sequences
Abundance of Clostridium bolteae [3, 4]: 3559 number of sequences
Abundance of Enterococcus faecalis [3, 4]: 4655 number of sequences
Abundance of Enterococcus faecium [3, 4]: 7750 number of sequences
Abundance of Erysipelotrichaceae bacterium I46 [3, 4]: 1788 number of sequences
Abundance of Faecalibacterium prausnitzii [3, 4]: 3622 number of sequences
Abundance of Faecalibaculum rodentium [3, 4]: 120296 number of sequences
Abundance of Faecalitalea cylindroides [3, 4]: 1039 number of sequences
Abundance of Flavonifractor plautii [3, 4]: 7720 number of sequences
Abundance of Intestinimonas butyriciproducens [3, 4]: 2426 number of sequences
Abundance of Lachnoclostridium phocaeense [3, 4]: 2366 number of sequences
Abundance of Lachnoclostridium sp. YL32 [3, 4]: 14254 number of sequences
Abundance of Lactobacillus acidipiscis [3, 4]: 630 number of sequences
Abundance of Lactobacillus agilis [3, 4]: 2223 number of sequences
Abundance of Lactobacillus animalis [3, 4]: 1355 number of sequences
Abundance of Lactobacillus fermentum [3, 4]: 10256 number of sequences
Abundance of Lactobacillus gallinarum [3, 4]: 928 number of sequences
Abundance of Lactobacillus gasseri [3, 4]: 61826 number of sequences
Abundance of Lactobacillus helveticus [3, 4]: 2955 number of sequences
Abundance of Lactobacillus johnsonii [3, 4]: 162300 number of sequences
Abundance of Lactobacillus murinus [3, 4]: 4440 number of sequences
Abundance of Lactobacillus plantarum [3, 4]: 1011 number of sequences
Abundance of Lactobacillus reuteri [3, 4]: 339700 number of sequences
Abundance of Lactobacillus ruminis [3, 4]: 2160 number of sequences
Abundance of Lactobacillus salivarius [3, 4]: 3546 number of sequences
Abundance of Lactococcus garvieae [3, 4]: 3953 number of sequences
Abundance of Lactococcus lactis [3, 4]: 642300 number of sequences
Abundance of Lactococcus piscium [3, 4]: 4133 number of sequences
Abundance of Libanicoccus massiliensis [3, 4]: 4193 number of sequences
Abundance of Listeria monocytogenes [3, 4]: 2783 number of sequences
Abundance of Mordavella sp. Marseille-P3756 [3, 4]: 1240 number of sequences
Abundance of Muribaculum intestinale [3, 4]: 21500 number of sequences
Abundance of Olsenella sp. Marseille-P2300 [3, 4]: 4915 number of sequences
Abundance of Olsenella uli [3, 4]: 1483 number of sequences
Abundance of Olsenella umbonata [3, 4]: 1620 number of sequences
Abundance of Oscillibacter valericigenes [3, 4]: 1053 number of sequences
Abundance of Parabacteroides goldsteinii [3, 4]: 43 number of sequences
Abundance of Romboutsia ilealis [3, 4]: 21923 number of sequences
Abundance of Roseburia intestinalis [3, 4]: 1190 number of sequences
Abundance of Ruminiclostridium sp. KB18 [3, 4]: 18969 number of sequences
Abundance of Streptococcus thermophilus [3, 4]: 7718 number of sequences
Abundance of uncultured Firmicutes bacterium [3, 4]: 1355 number of sequences
Change in the abundance of Alistipes fingoldii [3, 5]: marked increase
Change in the abundance of Alistipes shahii [3, 5]: marked increase
Change in the abundance of Olsenella uli [3, 5]: marked increase
Change in the abundance of Olsenella umbonata [3, 5]: marked increase
Change in the abundance of Romboutsia ilealis [3, 5]: decrease
Rank of Akkermansia muciniphila in the intestinal bacteria profile [3, 5]: among the most dominant species
Overall effect on the intestinal microbiota ([3]; HFD mice, oral administration): reshapes the intestinal microbiota HFD mice towards a healthy phenotype
